Data taken from patent publication US20240025907A1, “QUINAZOLINE PAN-KRas INHIBITORS” (Mirati Therapeutics, Inc., priority 2022, published 2024).
Like-named read-outs stand apart in the source and are kept apart here.

What was measured:
[1] = target: T1, KRas^G12D (Homo sapiens, UniProt P01116, G12D); experiment: KRas TR-FRET tracer displacement binding assay, G12D; conditions: 60-minute incubation
T1 construct: Biotinylated KRas (corresponding to amino acids 1-169, produced at Accelegan Inc.); biotin (biotinylated); purchased Accelegan Inc
T1 sequence (P01116 1-169 isoform P01116-2 G12D): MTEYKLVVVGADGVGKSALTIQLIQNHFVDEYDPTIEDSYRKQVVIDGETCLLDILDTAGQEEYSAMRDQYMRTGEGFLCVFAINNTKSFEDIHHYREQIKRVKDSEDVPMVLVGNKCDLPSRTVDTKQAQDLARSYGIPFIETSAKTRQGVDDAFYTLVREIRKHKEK
Description: (§1) KRas^WT, KRas^G12A, KRas^G12C, KRas^G12D, KRas^G12R, KRas^G12S, KRas^G12V, KRas^G13D, or KRas^Q61H was used in the assay.
(§2) The ability of a compound to bind to KRas was measured using a TR-FRET displacement assay. Biotinylated KRas (corresponding to amino acids 1-169, produced at Accelegan Inc.) was incubated with custom made Cy5 labelled tracer, terbium streptavidin (Cisbio Inc.) and compound (1% DMSO final) in buffer (50 mM HEPES, pH 7.5, 5 mM MgCl2, 0.005% Tween-20 and 1 mM DTT). After a 60-minute incubation at room temperature, the reaction was measured using a BMG LABTECH CLARIO star Plus via TR-FRET.

[2] = target: T2, KRas^G12V (Homo sapiens, UniProt P01116, G12V); experiment: KRas TR-FRET tracer displacement binding assay, G12V; conditions: 60-minute incubation
T2 construct: Biotinylated KRas (corresponding to amino acids 1-169, produced at Accelegan Inc.); biotin (biotinylated); purchased Accelegan Inc
T2 sequence (P01116 1-169 isoform P01116-2 G12V): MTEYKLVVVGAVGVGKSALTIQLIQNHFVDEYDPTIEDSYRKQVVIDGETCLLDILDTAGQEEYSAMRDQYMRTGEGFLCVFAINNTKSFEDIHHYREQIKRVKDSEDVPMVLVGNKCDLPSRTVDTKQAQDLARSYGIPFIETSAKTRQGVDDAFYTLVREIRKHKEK
Description: as §1, §2

[3] = target: T3, KRas^WT (Homo sapiens, UniProt P01116); experiment: KRas TR-FRET tracer displacement binding assay, WT; conditions: 60-minute incubation
T3 construct: Biotinylated KRas (corresponding to amino acids 1-169, produced at Accelegan Inc.); biotin (biotinylated); purchased Accelegan Inc
T3 sequence (P01116 1-169 isoform P01116-2): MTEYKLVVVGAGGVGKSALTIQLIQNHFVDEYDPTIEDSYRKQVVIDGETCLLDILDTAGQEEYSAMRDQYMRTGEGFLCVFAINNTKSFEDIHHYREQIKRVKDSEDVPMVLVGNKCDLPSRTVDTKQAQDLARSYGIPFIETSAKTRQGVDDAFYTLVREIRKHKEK
Description: as §1, §2

[4] = target: T4, KRas^G12C (Homo sapiens, UniProt P01116, G12C); experiment: KRas TR-FRET tracer displacement binding assay, G12C; conditions: 60-minute incubation
T4 construct: Biotinylated KRas (corresponding to amino acids 1-169, produced at Accelegan Inc.); biotin (biotinylated); purchased Accelegan Inc
T4 sequence (P01116 1-169 isoform P01116-2 G12C): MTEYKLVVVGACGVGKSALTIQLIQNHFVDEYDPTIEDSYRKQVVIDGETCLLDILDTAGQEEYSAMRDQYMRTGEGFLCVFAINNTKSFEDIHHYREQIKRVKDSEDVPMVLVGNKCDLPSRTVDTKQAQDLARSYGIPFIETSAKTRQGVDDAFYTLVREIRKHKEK
Description: as §1, §2

[5] = target: T5, KRas^G12S (Homo sapiens, UniProt P01116, G12S); experiment: KRas TR-FRET tracer displacement binding assay, G12S; conditions: 60-minute incubation
T5 construct: Biotinylated KRas (corresponding to amino acids 1-169, produced at Accelegan Inc.); biotin (biotinylated); purchased Accelegan Inc
T5 sequence (P01116 1-169 isoform P01116-2 G12S): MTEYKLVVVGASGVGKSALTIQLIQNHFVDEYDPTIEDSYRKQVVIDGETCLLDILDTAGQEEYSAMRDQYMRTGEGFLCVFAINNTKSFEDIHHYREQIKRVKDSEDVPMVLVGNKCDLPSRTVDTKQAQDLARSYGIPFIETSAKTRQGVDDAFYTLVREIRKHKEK
Description: as §1, §2

[6] = test system: KRas-mediated Phosphorylation of ERK in AsPC-1 cells; experiment: Cisbio HTRF pERK assay, AsPC-1 cells; format: cell-based; conditions: 3 hrs compound, read-out: Inhibition (HTRF IC50 nM) of KRas-mediated Phosphorylation of ERK, AsPC-1
[7] = test system: KRas-mediated Phosphorylation of ERK in H727 cells; experiment: Cisbio HTRF pERK assay, H727 cells; format: cell-based; conditions: 3 hrs compound, read-out: Inhibition (HTRF IC50 nM) of KRas-mediated Phosphorylation of ERK, H727
[8] = test system: KRas-mediated Phosphorylation of ERK in A549 cells; experiment: Cisbio HTRF pERK assay, A549 cells; format: cell-based; conditions: A549 cells, 3 hrs compound, read-out: Inhibition (HTRF IC50 nM) of KRas-mediated Phosphorylation of ERK, A549
[9] = test system: KRas-mediated Phosphorylation of ERK in H358 cells; experiment: Cisbio HTRF pERK assay, H358 cells; format: cell-based; conditions: H358 cells, 3 hrs compound, read-out: Inhibition (HTRF IC50 nM) of KRas-mediated Phosphorylation of ERK, H358
[10] = test system: KRas-mediated Phosphorylation of ERK in HCT116 cells; experiment: Cisbio HTRF pERK assay, HCT116 cells; format: cell-based; conditions: Homo sapiens, HCT-116, 3 h, HCT116 cells, 3 hrs compound; read-out: Inhibition (HTRF IC50 nM) of KRas-mediated Phosphorylation of ERK, HCT116
[11] = test system: KRas-mediated Phosphorylation of ERK in H460 cells; experiment: Cisbio HTRF pERK assay, H460 cells; format: cell-based; conditions: Homo sapiens, NCI-H460, 3 h, H460 cells, 3 hrs compound; read-out: Inhibition (HTRF IC50 nM) of KRas-mediated Phosphorylation of ERK, H460
[12] = test system: KRas-mediated Phosphorylation of ERK in PSN1 cells; experiment: Cisbio HTRF pERK assay, PSN1 cells; format: cell-based; conditions: Homo sapiens, PSN1, 3 h, 3 hour compound, read-out: Inhibition (HTRF IC50 nM) of KRas-mediated Phosphorylation of ERK, PSN1
Description: Inhibition of KRas Phosphorylation of ERK (HTRF) by Exemplary Compounds of Formula (I) • Cisbio HTRF Advanced pERK Assay Catalog #64AERPEH • Cell: MKN1, PSN1 • Procedure: • Day 1: Seed 6,000 cells/well −25 μl/well in 384-well white solid bottom plate; RPM1_10% FBS.

[13] = test system: KRas-mediated Phosphorylation of ERK in H2009 cells; experiment: Cisbio HTRF pERK assay, H2009 cells; format: cell-based; conditions: Homo sapiens, NCI-H2009, H2009 cells; read-out: Inhibition (HTRF IC50 nM) of KRas-mediated Phosphorylation of ERK, H2009

SMILES | IC50 [1] [nM] | IC50 [2] [nM] | IC50 [3] [nM] | IC50 [4] [nM] | IC50 [5] [nM] | IC50 [6] [nM] | IC50 [7] [nM] | IC50 [8] [nM] | IC50 [9] [nM] | IC50 ([6]; Homo sapiens, ASPC1, 3 h) [nM] | IC50 ([7]; Homo sapiens, NCI-H727, 3 h) [nM] | IC50 [10] [nM] | IC50 ([8]; Homo sapiens, A549, 3 h) [nM] | IC50 [11] [nM] | IC50 ([9]; Homo sapiens, NCI-H358, 3 h) [nM] | IC50 [12] [nM] | IC50 [13] [nM]
N#Cc1c(N)sc2c(F)ccc(-c3c(Cl)cc4c(N5CCCOC6CC65)nc(OC[C@@]56CCCN5C[C@H](F)C6)nc4c3F)c12 (single isomer, unassigned) [Example 213] | 9 | 4 | 11 | 8 | 5 | 761 | 767 | 398 | 160 | – | – | – | – | – | – | – | –
C=Cc1cc2c(N3CCCn4nc(C(=O)N(C)C)cc4C3)nc(OC[C@@]34CCCN3C[C@H](F)C4)nc2c(F)c1-c1ccc(F)c2sc(N)c(C#N)c12 [Example 176, 5-(7-(2-amino-3-cyano-7-fluorobenzo[b]thiophen-4-yl)-8-fluoro-2-(((2R,7aS)-2-fluorotetrahydro-1H-pyrrolizin-7a(5H)-yl)methoxy)-6-vinylquinazolin-4-yl)-N,N-dimethyl-5,6,7,8-tetrahydro-4H-pyrazolo[1,5-a][1,4]diazepine-2-carboxamide] | < 2 | < 2 | < 2 | < 2 | < 2 | – | – | – | – | 10 | 23 | 135 | 72 | 101 | 8 | – | –
C[C@@]1(O)CCCN(c2nc(OC[C@@]34CCCN3C[C@H](F)C4)nc3c(F)c(-c4ccc(F)c5sc(N)c(C#N)c45)c(F)cc23)C1 [Example 198, 2-amino-4-(6,8-difluoro-2-(((2R,7aS)-2-fluorotetrahydro-1H-pyrrolizin-7a(5H)-yl)methoxy)-4-((R)-3-hydroxy-3-methylpiperidin-1-yl)quinazolin-7-yl)-7-fluorobenzo[b]thiophene-3-carbonitrile] | 9 | 13 | 7 | 12 | 11 | – | – | – | – | 253 | 717 | 275 | 326 | 170 | 125 | – | –
CN(c1nc(OC[C@@]23CCCN2C[C@H](F)C3)nc2c(F)c(-c3ccc(F)c4sc(N)c(C#N)c34)c(Cl)cc12)[C@H]1C[C@@H]1F [Example 202, 2-amino-4-(6-chloro-8-fluoro-4-(((1S,2S)-2-fluorocyclopropyl)(methyl)amino)-2-(((2R,7aS)-2-fluorotetrahydro-1H-pyrrolizin-7a(5H)-yl)methoxy)quinazolin-7-yl)-7-fluorobenzo[b]thiophene-3-carbonitrile] | – | – | – | – | – | – | – | – | – | 200 | 104 | 498 | 200 | 145 | 63 | 3350 | 24
CN(C)C(=O)c1cc2n(n1)CCCN(c1nc(OC[C@@]34CCCN3C[C@H](F)C4)nc3c(F)c(-c4ccc(F)c5sc(N)c(C#N)c45)c(C4CC4)cc13)C2 [Example 207, 5-(7-(2-amino-3-cyano-7-fluorobenzo[b]thiophen-4-yl)-6-cyclopropyl-8-fluoro-2-(((2R,7aS)-2-fluorotetrahydro-1H-pyrrolizin-7a(5H)-yl)methoxy)quinazolin-4-yl)-N,N-dimethyl-5,6,7,8-tetrahydro-4H-pyrazolo[1,5-a][1,4]diazepine-2-carboxamide] | 2 | < 2 | < 2 | < 2 | < 2 | – | – | – | – | 3 | 11 | 42 | 22 | 34 | 3 | 811 | –
N#Cc1c(N)sc2c(F)ccc(-c3c(C4CC4)cc4c(N5C[C@H]6CC[C@@H](C5)N6)nc(OC[C@@]56CCCN5C[C@H](F)C6)nc4c3F)c12 [Example 208, 4-(4-((1R,5S)-3,8-diazabicyclo[3.2.1]octan-3-yl)-6-cyclopropyl-8-fluoro-2-(((2R,7aS)-2-fluorotetrahydro-1H-pyrrolizin-7a(5H)-yl)methoxy)quinazolin-7-yl)-2-amino-7-fluorobenzo[b]thiophene-3-carbonitrile] | < 2 | 10.4 | 4 | 7 | 4 | – | – | – | – | 4 | 3280 | 90 | 418 | 260 | 167 | 2390 | –

The remaining compounds from weak to strong by IC50 [1], led by results:

IC50 [1] [nM] | IC50 [2] [nM] | IC50 [3] [nM] | IC50 [4] [nM] | IC50 [5] [nM] | IC50 [6] [nM] | IC50 [7] [nM] | IC50 [8] [nM] | IC50 [9] [nM] | IC50 ([6]; Homo sapiens, ASPC1, 3 h) [nM] | IC50 ([7]; Homo sapiens, NCI-H727, 3 h) [nM] | IC50 [10] [nM] | IC50 ([8]; Homo sapiens, A549, 3 h) [nM] | IC50 [11] [nM] | IC50 ([9]; Homo sapiens, NCI-H358, 3 h) [nM] | IC50 [12] [nM] | IC50 [13] [nM] | SMILES
14 | 11 | 6 | 6 | 6 | 230 | 357 | 76 | 22 | – | – | – | – | – | – | – | – | N#Cc1c(N)sc2c(F)ccc(-c3c(Cl)cc4c(N5CCCOC6CC65)nc(OC[C@@]56CCCN5C[C@H](F)C6)nc4c3F)c12 (single isomer, unassigned) [Example 212]
3 | 3 | 3 | 3 | 2 | – | – | – | – | 4690 | > 10000 | > 10000 | > 10000 | 5340 | 1780 | > 10000 | – | N#Cc1c(N)sc2c(F)ccc(-c3c(Cl)cc4c(NCCS(N)(=O)=O)nc(OC[C@@]56CCCN5C[C@H](F)C6)nc4c3F)c12 [Example 201, 2-((7-(2-amino-3-cyano-7-fluorobenzo[b]thiophen-4-yl)-6-chloro-8-fluoro-2-(((2R,7aS)-2-fluorotetrahydro-1H-pyrrolizin-7a(5H)-yl)methoxy)quinazolin-4-yl)amino)ethane-1-sulfonamide]
3 | 3 | 2 | 3 | < 2 | – | – | – | – | 16 | 18 | 25 | 34 | 23 | 6 | 1180 | – | N#Cc1c(N)sc2c(F)ccc(-c3c(Cl)cc4c(N5CCCCC(F)C5)nc(OC[C@@]56CCCN5C[C@H](F)C6)nc4c3F)c12 (stereo partly drawn) [Example 204, 2-amino-4-(6-chloro-8-fluoro-4-(3-fluoroazepan-1-yl)-2-(((2R,7aS)-2-fluorotetrahydro-1H-pyrrolizin-7a(5H)-yl)methoxy)quinazolin-7-yl)-7-fluorobenzo[b]thiophene-3-carbonitrile]
3 | 2 | < 2 | < 2 | < 2 | – | – | – | – | 22 | 12 | 18 | 15 | 13 | 3 | 1270 | – | N#Cc1c(N)sc2c(F)ccc(-c3c(Cl)cc4c(N5CCCOCC5)nc(OC[C@@]56CCCN5C[C@H](F)C6)nc4c3F)c12 [Example 211, 2-amino-4-(6-chloro-8-fluoro-2-(((2R,7aS)-2-fluorotetrahydro-1H-pyrrolizin-7a(5H)-yl)methoxy)-4-(1,4-oxazepan-4-yl)quinazolin-7-yl)-7-fluorobenzo[b]thiophene-3-carbonitrile]
